The results in this text go back to patent US12275745B2, “Therapeutic compounds and methods of use” (Genentech, Inc., priority 2021, dated 2025).

One assay deals with TEAD1 (Homo sapiens, UniProt P28347). Briefly: TR-FRET (Lipid HTRF) TEAD lipid pocket probe displacement assay, TEAD1. The class given is binding. As to conditions: His-tagged TEAD1, biotinylated lipid pocket probe, 4 hours.
A further assay has as its target TEAD4 (Homo sapiens, UniProt Q15561). Briefly: TR-FRET (Lipid HTRF) TEAD lipid pocket probe displacement assay, TEAD4. It is filed as binding. The note with it: His-tagged TEAD4, biotinylated lipid pocket probe, 4 hours.
The target in a further assay is TEAD2 (Homo sapiens, UniProt Q15562). Kind of assay: biochemical.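 Note: TR-FRET competition assay with His-tagged TEAD protein and a biotinylated lipid pocket probe, where probe displacement by compound lowers the signal.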
TEAD2, sequence (Q15562 whole entry, species assumed): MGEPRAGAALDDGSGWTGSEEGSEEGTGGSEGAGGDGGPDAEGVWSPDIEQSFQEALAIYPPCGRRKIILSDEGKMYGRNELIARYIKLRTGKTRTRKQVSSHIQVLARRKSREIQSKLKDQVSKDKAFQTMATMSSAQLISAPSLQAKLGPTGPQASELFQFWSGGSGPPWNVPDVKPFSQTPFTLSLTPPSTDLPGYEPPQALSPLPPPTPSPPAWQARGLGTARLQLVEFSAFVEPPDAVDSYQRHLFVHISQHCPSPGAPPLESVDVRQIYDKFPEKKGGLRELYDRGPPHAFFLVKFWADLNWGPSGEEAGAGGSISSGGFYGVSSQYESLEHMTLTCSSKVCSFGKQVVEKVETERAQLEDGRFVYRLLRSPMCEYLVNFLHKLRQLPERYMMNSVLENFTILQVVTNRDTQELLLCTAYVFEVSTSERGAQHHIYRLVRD
The target of the next assay is TEAD3 (Homo sapiens, UniProt Q99594). Briefly: TR-FRET (Lipid HTRF) TEAD lipid pocket probe displacement assay, TEAD3. As to conditions: His-tagged TEAD3, biotinylated lipid pocket probe, 4 hours. The class given is binding. A general note: Time-resolved FRET reads energy transfer from a long-lived donor to a nearby acceptor.
TEAD3, sequence (Q99594 whole entry, species assumed): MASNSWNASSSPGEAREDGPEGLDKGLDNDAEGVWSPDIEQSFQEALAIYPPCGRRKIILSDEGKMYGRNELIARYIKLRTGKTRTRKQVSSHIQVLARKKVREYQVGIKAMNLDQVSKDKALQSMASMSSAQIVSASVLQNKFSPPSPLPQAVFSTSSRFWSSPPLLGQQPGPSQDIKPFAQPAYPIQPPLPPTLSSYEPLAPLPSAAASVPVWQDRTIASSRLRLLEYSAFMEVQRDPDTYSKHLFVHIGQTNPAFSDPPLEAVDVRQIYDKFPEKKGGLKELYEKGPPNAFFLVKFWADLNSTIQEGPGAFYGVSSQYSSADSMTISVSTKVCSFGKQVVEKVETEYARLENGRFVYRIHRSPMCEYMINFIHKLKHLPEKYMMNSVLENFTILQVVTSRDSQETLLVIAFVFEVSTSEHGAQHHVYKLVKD

For orientation: IC50 means the concentration at which inhibition is half-maximal. A low value points to inhibition by little substance.

TEAD4, sequence (Q15561 whole entry, species assumed): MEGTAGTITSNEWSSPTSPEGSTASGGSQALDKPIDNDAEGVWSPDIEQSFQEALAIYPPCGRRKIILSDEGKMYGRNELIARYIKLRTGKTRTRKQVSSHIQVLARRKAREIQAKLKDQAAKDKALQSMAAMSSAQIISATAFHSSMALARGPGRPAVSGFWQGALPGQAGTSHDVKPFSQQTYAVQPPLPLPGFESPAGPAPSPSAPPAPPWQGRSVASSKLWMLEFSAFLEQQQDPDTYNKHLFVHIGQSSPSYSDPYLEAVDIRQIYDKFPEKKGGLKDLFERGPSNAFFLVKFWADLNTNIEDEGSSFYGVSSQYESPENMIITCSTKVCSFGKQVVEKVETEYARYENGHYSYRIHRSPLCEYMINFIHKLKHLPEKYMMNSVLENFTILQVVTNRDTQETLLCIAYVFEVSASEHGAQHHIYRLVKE
TEAD1, sequence (P28347 whole entry, species assumed): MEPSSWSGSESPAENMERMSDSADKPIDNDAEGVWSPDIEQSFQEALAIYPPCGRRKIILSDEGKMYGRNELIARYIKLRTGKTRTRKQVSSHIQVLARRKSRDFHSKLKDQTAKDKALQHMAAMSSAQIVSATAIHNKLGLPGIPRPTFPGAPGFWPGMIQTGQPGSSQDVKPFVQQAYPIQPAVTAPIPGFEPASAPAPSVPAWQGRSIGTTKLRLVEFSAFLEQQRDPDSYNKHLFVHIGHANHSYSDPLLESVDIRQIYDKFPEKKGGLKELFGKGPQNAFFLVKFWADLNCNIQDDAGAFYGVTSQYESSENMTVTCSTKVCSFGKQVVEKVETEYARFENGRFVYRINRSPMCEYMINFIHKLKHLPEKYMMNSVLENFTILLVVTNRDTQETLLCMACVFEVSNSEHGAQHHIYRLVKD
Description for TEAD1: (§1) His-tagged TEAD proteins are pre-incubated with TEAD project compounds for 30 minutes or 4 hours at room temperature. Biotinylated lipid pocket probes are then added to the TEAD/Compound mixture and incubated for 60 minutes at room temperature. The lipid pocket probe competes with the test compound for the TEAD lipid pocket until equilibrium is reached. After 60 minutes, Europium labelled anti-His (Perkin Elmer #AD0110) and XL665 labelled streptavidin (CIS Bio 610SAXAC) are added to the TEAD/test compound/lipid pocket mixture and incubated for 30 minutes or 4 hours. TR-FRET values are then measured using an EnVision multi-label plate reader (Perkin Elmer Cat #2104-001 0A.) If the lipid pocket probe binds to TEAD as expected, a TR-FRET signal results from the proximity of anti-His Eu and XL665. If a TEAD lipid pocket binder such as binds and displaces the lipid pocket probe, the disruption of the TEAD:probe interaction results in a decrease in TR-FRET signal. The potency of compounds as TEAD lipid pocket binders is determined by IC50 value generated using a non-linear 4 parameter curve fit.
Description for TEAD4: as §1

Consider `C=CC(=O)NCc1cc(-c2ccc(OC(F)(F)F)cc2)c2cccnc2c1[C@H](O)CO` (single isomer, unassigned) [Compound 45], for which the IC50 on TEAD1 was 48 nM; at TEAD4, 380 nM; on TEAD2 it was 18 nM; on TEAD3 it was 1200 nM.

For `C=CC(=O)NCc1nc(N2CCC(OC(F)(F)F)CC2)c2ncn(C)c2n1` [Compound 131, N-((9-Methyl-6-(4-(trifluoromethoxy)piperidin-1-yl)-9H-purin-2-yl)methyl)acrylamide], the IC50 came to 400 nM on TEAD1, 81 nM on TEAD4, 1600 nM on TEAD2 and 1200 nM on TEAD3.

`C=CC(=O)NCc1cc(-c2ccc(C(F)(F)F)cc2)c2ncoc2c1[C@H](O)CO` (single isomer, unassigned) [Compound 109]: the IC50 on TEAD1 was found to be 150 nM; on TEAD4, 170 nM; against TEAD2, 58 nM; at TEAD3, 71 nM.

For the molecule `C=CC(=O)N1CC(c2nc(-c3ccc(OC(F)(F)F)cc3)c3ncsc3n2)C1` [Compound 99, 1-(3-(7-(4-(Trifluoromethoxy)phenyl)thiazolo[5,4-d]pyrimidin-5-yl)azetidin-1-yl)prop-2-en-1-one], the IC50 stood at 3.7 nM at TEAD1, 2.7 nM on TEAD4, 4.3 nM against TEAD2 and 3.1 nM on TEAD3.

Take `C=CC(=O)NCc1cc(-c2ccc(OC(F)(F)F)cc2)c2ncccc2c1[C@@H](O)CO` (single isomer, unassigned) [Compound 48]: the IC50 on TEAD1 was 22 nM; at TEAD4 it was 145 nM; against TEAD2 it was 14.5 nM; at TEAD3 it was 1040 nM.

`C=CC(=O)NCc1cc(Oc2ccc(C(F)(F)F)cc2)c2ncccc2c1[C@@H](O)CO` (single isomer, unassigned) [Compound 148]: the IC50 on TEAD1 came out at 36 nM; at TEAD4, 540 nM; at TEAD2, 8.7 nM; at TEAD3, 470 nM.

For the molecule `C=C(F)C(=O)N1CC(c2cc(-c3ccc(OC(F)(F)F)cc3)c3ncn(C)c3c2CO)C1` [Compound 59, 2-fluoro-1-[3-[4-(hydroxymethyl)-3-methyl-7-[4-(trifluoromethoxy)phenyl]benzimidazol-5-yl]azetidin-1-yl]prop-2-en-1-one], the IC50 at TEAD1 amounted to 18 nM; at TEAD4, 81 nM; against TEAD2, 37 nM; at TEAD3 it was 380 nM.

In the case of `C=CC(=O)N(C)Cc1cc(-c2ccc(OC(F)(F)F)cc2)c2nccn2c1CO` [Compound 36, N-[[5-(hydroxymethyl)-8-[4-(trifluoromethoxy)phenyl]imidazo[1,2-a]pyridin-6-yl]methyl]-N-methyl-prop-2-enamide], the IC50 on TEAD1 came to 44 nM; at TEAD4, 37 nM; at TEAD2, 100 nM; at TEAD3, 89 nM.

Take `C=C(NC(=O)c1cc(-c2ccc(OC(F)(F)F)cc2)c2ncn(C)c2c1)C(=O)OC` [Compound 141, Methyl 2-(1-methyl-4-(4-(trifluoromethoxy)phenyl)-1H-benzo[d]imidazole-6-carboxamido)acrylate]: the IC50 on TEAD1 worked out at 58 nM; at TEAD4 it was 15 nM; against TEAD2, 98 nM; at TEAD3 it was 1600 nM.

For the molecule `C=CC(=O)N(C)Cc1cc(-c2ccc(OC(F)(F)F)cc2)c2ncoc2c1[C@H](O)CO` (single isomer, unassigned) [Compound 107], the IC50 on TEAD1 was 100 nM; on TEAD4, 36 nM; at TEAD2, 20 nM; at TEAD3 it was 780 nM.

On to `O=C(C1=CCC1)N1CC(c2cc(-c3ccc(OC(F)(F)F)cc3)c3nccnc3c2[C@H](O)CO)C1` [Compound 87, (S)-Cyclobut-1-en-1-yl(3-(5-(1,2-dihydroxyethyl)-8-(4-(trifluoromethoxy)phenyl)quinoxalin-6-yl)azetidin-1-yl)methanone], for which the IC50 on TEAD1 worked out at 50 nM; at TEAD4 it was 11 nM; against TEAD2, 16 nM; at TEAD3 it was 140 nM.

`C=CC(=O)NCc1cc(-c2ccc(OC(F)(F)F)cc2)c2ncoc2c1[C@H](O)CO` (single isomer, unassigned) [Compound 105]: the IC50 turned out to be 130 nM at TEAD1, 90 nM at TEAD4, 30 nM on TEAD2 and 74 nM at TEAD3.

Consider `C=C(F)C(=O)N1CC(c2nc(-c3ccc(OC(F)(F)F)cc3)c3ncn(C(F)F)c3n2)C1` [Compound 132, 1-(3-(9-(Difluoromethyl)-6-(4-(trifluoromethoxy)phenyl)-9H-purin-2-yl)azetidin-1-yl)-2-fluoroprop-2-en-1-one], for which the concentration for half-maximal inhibition (IC50) at TEAD1 is 6.9 nM; at TEAD4, 24 nM; against TEAD2, 150 nM; on TEAD3, 100 nM.

Regarding `Cn1cnc2c(-c3ccc(OC(F)(F)F)cc3)nc(C3(C#N)CN(C(=O)/C=C/CO)C3)nc21` [Compound 128, (E)-1-(4-Hydroxybut-2-enoyl)-3-(9-methyl-6-(4-(trifluoromethoxy)phenyl)-9H-purin-2-yl)azetidine-3-carbonitrile], the IC50 was determined as 11 nM on TEAD1, 2.7 nM at TEAD4, 21 nM against TEAD2 and 9.9 nM on TEAD3.

Consider `C=CC(=O)NCc1cc(Oc2ccc(C(F)(F)F)cc2)c2ncccc2c1[C@H](O)CO` (single isomer, unassigned) [Compound 147], for which the IC50 at TEAD1 came out at 110 nM; at TEAD4, 890 nM; against TEAD2 it was 19 nM; on TEAD3 it was 610 nM.

Consider `C=C(F)C(=O)NCc1cc(-c2ccc(OC(F)(F)F)cc2)c2c(c1C#N)CCO2` [Compound 67, N-[[4-cyano-7-[4-(trifluoromethoxy)phenyl]-2,3-dihydrobenzofuran-5-yl]methyl]-2-fluoro-prop-2-enamide], for which the IC50 at TEAD1 was determined as 93 nM; at TEAD4 it was 140 nM; against TEAD2 it was 340 nM; at TEAD3, 420 nM.

Take `C=CC(=O)NCc1cc(-c2ccc(OC(F)(F)F)cc2)c2cccnc2c1CO` [Compound 44, N-[[8-(hydroxymethyl)-5-[4-(trifluoromethoxy)phenyl]-7-quinolyl]methyl]prop-2-enamide]: the IC50 was found to be 11 nM at TEAD1, 54 nM on TEAD4, 16 nM on TEAD2 and 18 nM at TEAD3.

`C=CC(=O)NCc1cc(-c2ccc(OC(F)(F)F)cc2)c2c(c1[C@H](O)CC#N)CCO2` (single isomer, unassigned) [Compound 91]: the IC50 at TEAD1 stood at 140 nM; on TEAD4, 63 nM; against TEAD2, 34 nM; on TEAD3, 11000 nM.

Turning to `C=CC(=O)NCc1cc(-c2ccc(OC(F)(F)F)cc2)c2ncn(C)c2c1Cc1cn[nH]c1` [Compound 34, N-[[3-methyl-4-(1H-pyrazol-4-ylmethyl)-7-[4-(trifluoromethoxy)phenyl]benzimidazol-5-yl]methyl]prop-2-enamide], the IC50 on TEAD1 was 190 nM; on TEAD4 it was 62 nM; against TEAD2, 59 nM; on TEAD3 it was 3600 nM.

Consider `C=CC(=O)NCc1cc(-c2ccc(OC(F)(F)F)cc2)c2ncn(C)c2c1NCCO` [Compound 140, N-((7-((2-Hydroxyethyl)amino)-1-methyl-4-(4-(trifluoromethoxy)phenyl)-1H-benzo[d]imidazol-6-yl)methyl)acrylamide], for which the IC50 stood at 27 nM at TEAD1, 43 nM on TEAD4, 47 nM against TEAD2 and 3000 nM at TEAD3.
